This is an account of results in patent US20220127682A1, “SELECTION AND TREATMENT OF CANCER WITH COMBINATION THERAPIES” (Massachusetts Institute of Technology, priority 2020, published 2022).

“Also recorded” adds a separate entry of the source. Read-outs that look alike come from different tables or passages of the source.

For data set [1] the following is noted: cited from earlier work.
For data set [2] the following is noted: cited from earlier work. This is another data set of the same source.
Data set [3] has as its system HCT116, NCI-H460, and taxane-resistant CXB1 colon carcinoma xenografts. The settings on record: mouse model; ~25 mg/kg/day; cited from earlier work.
Data set [4] concerns panel of >50 other kinases. As to conditions: concentrations up to 10 μM; in vitro; cited from earlier work.
For data set [5] the following is noted: advanced solid tumors; cited from earlier work.
Data set [6] deals with C4-2 castrate resistant prostate cancer cells. The experiment in a line: Cell viability (CellTiter-Glo, 72 h) of drug combinations vs Bliss expected. The class given is cell-based. The settings on record: for tumor cell killing of PLK inhibitor combined with abiraterone, vs expected additive: C4-2 CRPC cells, 72 hours, Bliss independence.
The test system of data set [7] is xenograft tumor models. The settings on record: under proper dose scheduling; cited from earlier work.
The conditions of data set [8]: cited from earlier work. The source holds these as a separate data set.
For data set [9], the system named is mouse xenograft models. As to conditions: 10 mg/kg and 20 mg/kg on days 1 and 28; cited from earlier work.
Data set [10] concerns the target PLK1 (Homo sapiens, UniProt P53350). As to conditions: cited from earlier work.
Data set [11] concerns various human tumor cell lines. As to conditions: cited from earlier work.
For data set [12] the following is noted: cited from earlier work. The source holds these as a separate data set.
For data set [13] the following is noted: doses of 24 to 48 mg/m^2 for 5 consecutive days every 4 weeks; cited from earlier work.
The conditions of data set [14]: preclinical, cited from earlier work.
The test system of data set [15] is Cdc25C-T96 phosphorylation. As to conditions: read-out: EC50, Cdc25C-T96 phosphorylation; cited from earlier work.
For data set [16], the system named is cell mitosis. As to conditions: read-out: EC50, inhibition of cell mitosis; cited from earlier work.
Data set [17] has as its system Bel-7402, MCF-7, and MIA-PaCa cells xenografts. As to conditions: 250 mg/kg; Bel-7402, MCF-7, MIA-PaCa xenografts; cited from earlier work.
The subject of data set [18] is BT20 cells xenograft. As to conditions: 200 mg/kg; cited from earlier work.
Data set [19] addresses several tyrosine kinases and cyclin-dependent kinase 1 (Cdk1). The settings on record: cited from earlier work.
For data set [20] the following is noted: cited from earlier work. The source holds these as a separate data set.
Data set [21] concerns colorectal cancer cell HT-29. The settings on record: read-out: anti-proliferative IC50; cited from earlier work.
Data set [22] has as its system skin cancer cell A375. As to conditions: read-out: anti-proliferative IC50; cited from earlier work.
Data set [23] relates to prostate cancer cell PC3. The settings on record: read-out: anti-proliferative IC50; cited from earlier work.
In data set [24] the test system is lung cancer cell line H82. The settings on record: read-out: anti-proliferative IC50; cited from earlier work.
The subject of data set [25] is HT-29 human colorectal tumors. As to conditions: HT-29 tumors in nude mouse, cited from earlier work.
Data set [26] has as its system breast cancer cell MDA-MB-468. As to conditions: read-out: anti-proliferative IC50; cited from earlier work.
The test system of data set [27] is several tumor cell lines, including those that express MDR1. The settings on record: including lines that express multidrug-resistant protein 1 (MDR1); cited from earlier work.
Data set [28] has as its system C4-2 CRPC cells expressing histone H2B-mCherry and mEmerald-tubulin. The experiment in a line: Time-lapse live-cell microscopy and spindle orientation analysis. The class given is cell-based. As to conditions: for frequency of division not parallel to the growth surface: live-cell microscopy; for spindle orientation / spindle rotation during mitosis: net angular displacement and cumulative angular distance. The protocol:
C4-2 CRPC cells expressing histone H2B-mCherry and mEmerald-tubulin. were plated in 12-well plates in phenol red free media, the following day drugs were added as indicated and the cells were imaged on a EVOS™ FL Auto Cell Imaging System equipped with an onstage incubator to maintain 37° C., adequate humidity, and 5% CO2. Images were acquired at 15-minute intervals for 72 hours using a 20× objective lens. For the rotation analysis, the angle of the spindles major axis was tracked starting from when it was first apparent, prometaphase, until telophase. The net angular displacement is the total change in angle of the spindle during mitosis from start until finish and is the absolute value of the sum of all stepwise rotations. The cumulative angular distance is the total amount of rotation regardless of direction that occurred during mitosis and is the sum of the absolute value of all rotations.

In data set [29] the test system is C4-2 CRPC cells. As to the kind of experiment: Identification of mitotic (pHH3) and apoptotic (cleaved caspase-3) cells by flow cytometry. The class given is cell-based. The settings on record: drug added to onvansertib. The protocol: C4-2 CRPC cells were plated in 6-well plates at a density of 300,000 cells per well and a total volume of 3 mls. The following day the indicated drugs were diluted in the appropriate growth media while maintaining a constant final concentration of DMSO and added to the wells. After the indicated amount of time cells were harvested by trypsinization. The media, trypsin and PBS wash were collected together to avoid loss of loosely attached or detached cells. Cells were fixed in 4% formaldehyde in PBS for 15 minutes, washed with PBS containing 1% bovine serum albumin (PBS-BSA), and then stored in methanol at −20° C. overnight. Cells were then washed twice in PBS-BSA 0.1% Tween-20, incubated with primary antibodies overnight at 4° C., washed with PBS-BSA 0.1% Tween-20 and incubated for 1 hour with fluorescent-dye conjugated secondary antibodies (diluted 1:200, Alexa Fluor, Molecular Probes) at room temperature for 1 hour. Primary antibodies included anti-phospho-serine 10 histone H3 (clone 3H10, Millipore) and anti-active caspase-3 (clone C92-605, BD Pharmingen). The fixed cells were then washed with PBS-BSA 0.1% Tween-20 and resuspended in PBS containing 1 μg/ml 4,6-diamidino-2-phenylindole (DAPI, Molecular Probes) to stain DNA and analyzed using a BD™ LSRII flow cytometer (Becton Dickinson) and the FlowJo™ software package.

Sequence of PLK1 (P53350 whole entry): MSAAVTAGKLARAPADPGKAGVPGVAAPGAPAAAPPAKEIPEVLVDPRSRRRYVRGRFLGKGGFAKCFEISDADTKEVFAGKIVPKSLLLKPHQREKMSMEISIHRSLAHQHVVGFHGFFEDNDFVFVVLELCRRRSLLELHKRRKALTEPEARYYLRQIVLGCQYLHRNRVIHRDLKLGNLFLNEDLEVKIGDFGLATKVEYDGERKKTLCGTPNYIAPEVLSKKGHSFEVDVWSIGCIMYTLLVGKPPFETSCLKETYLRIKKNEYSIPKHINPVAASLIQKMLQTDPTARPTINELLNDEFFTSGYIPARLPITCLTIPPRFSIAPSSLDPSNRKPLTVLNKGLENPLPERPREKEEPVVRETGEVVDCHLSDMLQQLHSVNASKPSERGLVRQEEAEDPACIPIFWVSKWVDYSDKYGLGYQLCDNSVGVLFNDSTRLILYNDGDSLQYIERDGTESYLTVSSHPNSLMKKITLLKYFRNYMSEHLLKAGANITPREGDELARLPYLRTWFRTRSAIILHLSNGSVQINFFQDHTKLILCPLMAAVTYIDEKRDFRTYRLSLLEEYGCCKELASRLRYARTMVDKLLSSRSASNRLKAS

With `CC(=O)O[C@H]1CC[C@@]2(C)C(=CC[C@@H]3[C@@H]2CC[C@]2(C)C(c4cccnc4)=CC[C@@H]32)C1` [Abiraterone acetate, abiraterone acetate], the solubility in water entry in [1] is given as “practically insoluble”.
Take `CC[C@@H]1C(=O)N(C)c2cnc(Nc3ccc(C(=O)N[C@H]4CC[C@H](N5CCN(CC6CC6)CC5)CC4)cc3OC)nc2N1C(C)C` [BI6727, volasertib]: the “recommended dose for further development” value in data set [2] (based on overall tolerability) was 300 mg. Further, in data set [2] (i.v. once every 3 weeks, advanced solid tumors), the MTD was 400 mg. For the same compound, the DLTs entry in [2] (i.v. once every 3 weeks, dose escalation 12-450 mg) was “neutropenia, thrombocytopenia, and febrile neutropenia”. The “growth of multiple human carcinoma xenografts” value in data set [3] is “significantly inhibits the growth”. Moreover, in data set [4], the “inhibitory activity against a panel of >50 other kinases” value is recorded as “no inhibitory activity”. Further, the “MTD in combination with afatinib” value in data set [5] was 300 mg. Moreover, the “tumor cell killing of PLK inhibitor combined with abiraterone, vs expected additive” value in data set [6] is given as “more than additive”.
`C[C@@H](Oc1cc(-n2cnc3ccc(CN4CCN(C)CC4)cc32)sc1C(N)=O)c1ccccc1C(F)(F)F` [GSK461364]: the “effect in xenograft tumor models” value in data set [7] is recorded as “tumor regression”. Besides, the “tumor cell killing of PLK inhibitor combined with abiraterone, vs expected additive” value in data set [6] was “more than additive”. Moreover, in data set [8] (i.v., schedules A and B, 28-day cycle), the DLTs result is “grade 4 neutropenia, sepsis, and pulmonary embolism”. Moreover, the “incidence of venous thrombotic emboli (VTE)” value in data set [8] (in vivo) is on record as 20%. Besides, in data set [8] (intravenously, schedule A (days 1, 8, and 15)), the “final recommended phase II dose” value is recorded as 225 mg.
In the case of `COc1ccc(S(=O)(=O)Nc2ccccc2/C=C/c2cc[n+]([O-])cc2)cc1` [HMN-176], in data set [9], the “antitumor activity in mouse xenograft models” value is reported as “potent antitumor activity”. In data set [10] (affects subcellular distribution of PLK1 instead), the “enzymatic activity of PLK1” value is given as “does not directly inhibit”. The “cytotoxicity toward various human tumor cell lines” value in data set [11] was “potent cytotoxicity”.
Regarding `COc1ccc(S(=O)(=O)N(C(C)=O)c2ccccc2/C=C/c2cc[n+]([O-])cc2)cc1` [HMN-214], the dose-limiting toxicities entry in data set [12] (at 9.9 mg/m^2/d) is “severe myalgia/bone pain syndrome and hyperglycemia”. The “maximum tolerated dose and recommended dose” value in data set [12] (continuous 21-day dosing schedule every 28 days) is recorded as 8.0 mg/m^2/d. In addition, the DLTs result in data set [13] was “prolonged neutropenia, febrile neutropenia, neutropenic sepsis, electrolyte disturbance, neuropathy, and myalgia”.
In the case of `Cc1ncc(CCCN(C)C)cc1Nc1ncc2c(n1)-c1ccc(C(F)(F)F)cc1NC(=S)C2` [MLN0905], the maximum tolerated dose is recorded as 6.25 mg/kg in data set [14] (QD (daily) schedule) and 14.5 mg/kg in [14] (QD×3/wk (3-days on/4-days off) schedule). For the same compound, the values for the EC50 in [15] and in [16] were 29 nM and 9 nM, respectively.
As for `COc1cc(OC)c(/C=C/S(=O)(=O)Cc2ccc(OC)c(NCC(=O)[O-])c2)c(OC)c1.[Na+]` [ON 01910, rigosertib], the tumor growth result in [17] is “inhibited tumor growth”; in data set [18], “inhibition of tumor growth”. Moreover, the IC50 in [19] is 18 to 260 nM. Also, the DLT entry in data set [20] (at the MTD) is reported as “Grade 3 abdominal pain”. Further, in [20] (i.v., days 1, 4, 8, 11, 15, and 18 in 28-day cycles), the MTD is recorded as 3,120 mg.
As for `COc1cc(C(=O)NC2CCN(C)CC2)ccc1NC1NCC2C(N1)N(C1CCCC1)CC(F)(F)C(=O)N2C` (stereo not drawn) [RO3280], the IC50 was 10 nM in [21]; 70 nM in data set [22]; 12 nM in [23]; 5 nM in data set [24]; 3 nM in [10]; 19 nM in data set [26]. Moreover, the antitumor activity entry in data set [25] (dosed more frequently) was “complete tumor regression”. Further, the tumor growth inhibition in [25] (once weekly at 40 mg/kg) is 72%.
For `COc1cc(C(=O)NC2CCN(C)CC2)c(F)cc1Nc1ncc2c(n1)N(C1CCCC1)CC(F)(F)C(=O)N2C` [TAK-960], in [27], the “activity in tumor cell lines” value is reported as “shown activity”.
`C[C@]12CC[C@H](O)CC1=CC[C@@H]1[C@@H]2CC[C@]2(C)C(c3cccnc3)=CC[C@@H]12` [abiraterone]: in data set [28], the “frequency of division not parallel to the growth surface” value is reported as “increased” and the “spindle orientation / spindle rotation during mitosis” value is recorded as “disrupted proper spindle orientation”. Further, in data set [29], the “effect on apoptotic cell death (cleaved Caspase-3 positive cells) after onvansertib” value is on record as “exacerbates subsequent apoptotic cell death” and the “effect on mitotic arrest (pHH3 positive cells) caused by PLK1 inhibitor onvansertib” value is “dramatically increased the frequency of mitotic arrest; also recorded: enhances the mitotic arrest”.
For the compound `CNC(=O)c1ccc(N2C(=S)N(c3ccc(C#N)c(C(F)(F)F)c3)C(=O)C2(C)C)cc1F` [enzalutamide], in data set [28], the “frequency of division not parallel to the growth surface” value is reported as “did not result in these phenotypes” and the “spindle orientation / spindle rotation during mitosis” value is listed as “did not result in these phenotypes”. Moreover, in [6] (C4-2 cells, enzalutamide combined with onvansertib or BI2536), the “more than additive effect with PLK1 inhibitors” value was “not observed”. The “effect on mitotic arrest (pHH3 positive cells) caused by PLK1 inhibitor onvansertib” value in data set [29] is reported as “does not enhance the mitotic arrest”.
